Measurements: patent US11078196B2, “Heteroaryl amides as inhibitors of protein aggregation” (UCB Biopharma SRL, priority 2014, dated 2021)
Where two headings read alike, the source gives them in different places.

Experiments:
[1] = In vivo pharmacokinetics and brain distribution, single i.v. or p.o. dose; parameters: species or system male C57BL/6 mice; settings: mice; for clearance / bioavailability: male, C57BL/6, mouse, plasma; for clearance: read-out: PK Clearance; for bioavailability: po, read-out: Oral Bioavailablility
Method: The pharmacokinetics and brain distribution of the compounds described herein was determined in male C57BL/6 mice following single intravenous or oral dose administration. A group of 54 male mice were divided into two groups of 27 mice. […] Blood samples were collected pre-dose and at 0.08, 0.25, 0.5, 1, 2, 4, 8, and 24 h post-dose (i.v.), and pre-dose, and at 0.25, 0.5, 1, 2, 4, 6, 8 and 24 h post-dose (p.o.). Blood was collected from sets of three mice at each time point in labeled microcentrifuge tubes containing K2EDTA as anticoagulant. Plasma samples were separated by centrifugation of whole blood and stored below −70° C. until bioanalysis. After collecting blood samples, mice were humanely euthanized by CO2 asphyxiation and brain was collected at the same time points. Following collection, the brain samples were washed in ice-cold phosphate buffer saline (pH 7.4), gently dried on filter paper, weighed and placed in polypropylene tubes. Further brain samples were homogenized using phosphate buffer saline pH 7.4 and the total homogenate volume was thrice the brain weight. The samples were then stored below −70° C. until bioanalysis. All samples were processed for analysis by protein precipitation using acetonitrile and analyzed with fit-for-purpose LC/MS/MS method (LLOQ: 1.01 ng/mL for plasma and brain). Pharmacokinetic parameters were calculated using the non-compartmental analysis tool of Phoenix WinNonlin (Version 6.3).

Stability in SGF = format: in vitro ADME
Plasma stability = format: in vitro ADME
[2] = test system: transgenic ASYN protein in Line 61 ASYN transgenic mouse; experiment: Western Blot analysis of cerebral cortical and hippocampal brain homogenates; format: in vivo
Method: (§1) Example 1 was evaluated in a transgenic mouse model of PD overexpressing human wild-type ASYN under the Thy-1 promoter (also referred to as the Line 61 ASYN transgenic mouse), by administering Example […] 0, 1, or 5 mg/kg (i.p.) once daily (five days per week) for three months and then assessing PD-relevant sensorimotor performance, biochemical alterations, and neuropathological changes in ASYN and related proteins.
(§2) Biochemical evaluations of oligomeric proteins using A11 antibody dot blot methods (including ASYN) in cortical homogenates were performed.

[3] = test system: cardiac ASYN in Line 61 ASYN transgenic mice; experiment: Post-mortem Western blot of cardiac ASYN; format: in vivo, mouse; settings: p<0.0001 vs. vehicle-treated ASYN transgenic mice
Source text: Like bowel dysfunction, alterations in cardiac biochemistry and function may precede Parkinson's disease diagnosis by 20 years or more. Well-characterized functional alterations in PD patients include altered heart rate variability and orthostatic hypotension (Kaufmann, H. et al., Handbook Clin. Neurol. 2013, 117, 259-278; Jain, S. et al., Neurobiol. Dis. 2012, 46(3), 572-580; Senard, J. M. et al., Rev. Neurol. (Paris) 2010, 166(10), 779-784; Post, K. K. et al., Parkinsonism Relat. Disord. 2008, 14(7), 524-531). These functional changes are accompanied by pathological findings of loss of myocardial noradrenergic innervation and the presence of ASYN aggregates in cardiac autonomic nerves (Jellinger, K. A., J. Neurol. Sci. 2011, 310 (1-2), 107-111). […] For the present study, post-mortem Western blot evaluations of cardiac ASYN by Western blot analysis were performed to confirm the presence in ASYN transgenic cardiac tissue and to evaluate the effects of Example 1 on transgenic cardiac levels of ASYN (FIG. 10). There was a statistically significant increase in detected cardiac levels of ASYN in vehicle-treated ASYN transgenic mice relative to vehicle-treated non-transgenic control mice (***p<0.001).

PDNG78 transgenic mice = experiment: Longitudinal retinal imaging of ASYN-GFP; format: in vivo, mouse; settings: 5 mg/kg i.p., after approximately 60 days through 90 days
Method: A total of four imaging sessions were conducted, including a baseline prior to starting treatments and three subsequent imaging sessions at approximately one-month intervals.

[4] = test system: oligomers in Line 61 ASYN transgenic mouse; experiment: A11 antibody dot blot of oligomeric proteins in cortical homogenates; format: in vivo; settings: 5 mg/kg; p<0.001 vs. vehicle-treated ASYN transgenic mice
Method: as §1, §2

[5] = test system: ASYN in Line 61 ASYN transgenic mouse; experiment: ASYN immunolabeling in cortical neuropil and neuronal cell bodies; format: in vivo; settings: for alpha-synuclein immunolabeling in cortical neuropil: p<0.0001 vs. vehicle-treated ASYN transgenic mice
Method: These neuropathological findings were reconfirmed in the current study using the methods described by Masliah and colleagues. Example 1 administration (1 and 5 mg/kg dosing) produced statistically significant decreases in ASYN levels as determined by effects on ASYN immunolabeling (FIGS. 6 and 7). There was a statistically significant increase in ASYN immunolabeling with the Millipore anti-alpha-synuclein antibody in the cortical neuropil (****p<0.0001) (FIG. 6A) and in neuronal cell bodies of ASYN transgenic mice (**p<0.01) (FIG. 6B) relative to non-transgenic/vehicle controls.

[6] = test system: Line 61 ASYN transgenic mice; experiment: Fecal boli counts in a novel environment; format: in vivo, mouse
Method: An earlier published study included a report that Line 61 ASYN transgenic mice have decreased colonic motility, fecal output, and weight (Wang, L. et al. Neurogastroenterol. Motil. 2012, 24(9), e425-436). For the present study, an assessment of fecal boli counts was conducted in conjunction with a spontaneous locomotor activity test session. At the conclusion of a five-minute test session, the experimenter counted the number of fecal boli present in the test chamber, and the results are presented in FIG. 9.

[7] = test system: Line 61 ASYN transgenic mouse; experiment: Round Beam Task, sensorimotor impairment; format: in vivo; settings: for number of slips, Round Beam Task: Example 6A, three months, vs. vehicle-treated transgenic mice; for number of slips, Round Beam Motor Performance assay: Example 6B
Source text: The Round Beam Task was used to assess sensorimotor impairments, using number of slips as the primary outcome measure (FIG. 4).

Structure (SMILES)	clearance ([1]; iv, at 10 mg/kg) [mL/min/kg]	bioavailability ([1]; at 10 mg/kg) [%]	B:P ratio (IV) ([1]; at 10 mg/kg)	B:P ratio (PO) ([1]; at 10 mg/kg)	Stability in SGF (Stability in SGF)	Plasma Stability (Plasma stability; @ 120 min) [% @]	also measured
CCCC[C@H](Cc1c[nH]c2ccccc12)NC(=O)c1cnc(N2CCN(C)CC2)s1 [Example 28, (R)-N-(1-(1H-Indol-3-yl)hexan-2-yl)-2-(4-methylpiperazin-1-yl)thiazole-5-carboxamide]	69	14	2.1	0.4			
CCCCNC(=O)C(Cc1c[nH]c2ccccc12)NC(=O)c1cnc(N2CCNCC2)s1 (centres unmarked) [Comp. A, reference compound]				0.05	stable		clearance ([1]; intravenous, at 10 mg/kg): 71 mL/min/kg; Plasma Stability (Plasma stability; @ 60 min): 35% @
CCCCC(Cc1c[nH]c2ccccc12)NC(=O)c1cnc(N2CCN(C)CC2)s1 (centres unmarked) [Example 1, N-(1-(1H-Indol-3-yl)hexan-2-yl)-2-(4-methylpiperazin-1-yl)thiazole-5-carboxamide]	81	53	2.0	0.4	stable	100	transgenic ASYN protein levels [2]: statistically significant reductions; cardiac levels of ASYN ([3]; 0.5 mg/kg): statistically significant normalizations of ASYN levels; cardiac levels of ASYN ([3]; 1 mg/kg): statistically significant normalizations of ASYN levels; percentage of ASYN-GFP positive area in retinal images (PDNG78 transgenic mice; p<0.001 vs. vehicle): decreased; number of ASYN-GFP positive particles in retinae (PDNG78 transgenic mice; p<0.01 vs. vehicle): decreased; oligomers (A11 immunostaining) in cytosolic fraction of frontal cortex [4]: statistically significant decrease in oligomers; alpha-synuclein immunolabeling in cortical neuropil ([5]; 1 mg/kg): statistically significant decreases in alpha-synuclein immunolabeling; number of ASYN immunolabeled neuron cell bodies ([5]; 5 mg/kg): non-statistically significant decrease; alpha-synuclein immunolabeling in cortical neuropil ([5]; 5 mg/kg): statistically significant decreases in alpha-synuclein immunolabeling; number of fecal boli produced ([6]; ASYN transgenic mice, 0.5 mg/kg, p<0.05 vs. vehicle): restored function; number of fecal boli produced ([6]; ASYN transgenic mice, 1 mg/kg, p<0.001 vs. vehicle): restored function; number of fecal boli produced ([6]; non-transgenic mice): no effect; number of slips, Round Beam Task ([7]; 1 mg/kg i.p. once daily): statistically significantly reductions in slips; number of slips, Round Beam Task ([7]; 5 mg/kg i.p. once daily): statistically significantly reductions in slips; number of slips, Round Beam Motor Performance assay ([7]; 0.5 mg/kg): non-statistically significant decrease in slips; number of slips, Round Beam Motor Performance assay ([7]; 1 mg/kg, p<0.01 vs. vehicle-treated ASYN transgenic mice): statistically significant improvement (decreased slips)
CCCCC(Cc1c[nH]c2ccccc12)NC(=O)c1cnc(CCN2CCN(C)CC2)s1 (centres unmarked) [Example 5, N-(1-(1H-Indol-3-yl)hexan-2-yl)-2-(2-(4-methylpiperazin-1-yl)ethyl)thiazole-5-carboxamide]	24	79	0.18	0.05	stable	100	
CCCCC(Cc1c[nH]c2ccc(F)cc12)NC(=O)c1cnc(CCN2CCOCC2)s1 (centres unmarked) [Example 10, N-(1-(5-Fluoro-1H-indol-3-yl)hexan-2-yl)-2-(2-morpholinoethyl)thiazole-5-carboxamide]		13		0.15			clearance ([1]; intravenous, at 2 mg/kg): 75 mL/min/kg; B:P ratio (IV) ([1]; at 2 mg/kg): 0.8
CCCNC(=O)NC(Cc1c[nH]c2ccccc12)NC(=O)c1cnc(N2CCN(C)CC2)s1 (centres unmarked) [Comp. B, reference compound]		14	0.1	0.08	unstable		clearance ([1]; intravenous, at 10 mg/kg): 258 mL/min/kg; Plasma Stability (Plasma stability; @ 60 min): 89% @
CCCC[C@@H](Cc1c[nH]c2ccccc12)NC(=O)c1cnc(N2CCN(C)CC2)s1 [Example 27, (S)-N-(1-(1H-Indol-3-yl)hexan-2-yl)-2-(4-methylpiperazin-1-yl)thiazole-5-carboxamide]	37	57	1.4	0.3			
CN1CCN(CCc2ncc(C(=O)NCCc3c[nH]c4ccccc34)s2)CC1 [Example 4, N-(2-(1H-Indol-3-yl)ethyl)-2-(2-(4-methylpiperazin-1-yl)ethyl)thiazole-5-carboxamide]	95	100	0.4	0.1	stable	25	
